Laboratory results from patent US11021481B2, “Substituted isoindolin-1-ones and 2,3-dihydro-1h-pyrrolo[3,4-c]pyridin-1-ones as HPK1 antagonists” (Nimbus Saturn, Inc., priority 2019, dated 2021).

These molecules were tested against HPK1 (Homo sapiens (Human), UniProt Q92918) (assay: HPK1 biochemical enzyme assay (microfluidic mobility shift assay)). Conditions: 1.5 nM HPK1, ATP 1 mM final, 30 min preincubation, 60 min at RT, Caliper EZ Reader; read-out: HPK1 1000UMATP caliper IC50.
How it was run: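 Ten-point compound titrations (top 3 μM final) preincubated 30 min with HPK1 and substrate, then reaction started with 1 mM ATP and 1 μM substrate, 5 mM MgCl2. After 60 min at RT, reaction terminated and product measured by microfluidic mobility shift.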

HPK1, sequence (Q92918 whole entry): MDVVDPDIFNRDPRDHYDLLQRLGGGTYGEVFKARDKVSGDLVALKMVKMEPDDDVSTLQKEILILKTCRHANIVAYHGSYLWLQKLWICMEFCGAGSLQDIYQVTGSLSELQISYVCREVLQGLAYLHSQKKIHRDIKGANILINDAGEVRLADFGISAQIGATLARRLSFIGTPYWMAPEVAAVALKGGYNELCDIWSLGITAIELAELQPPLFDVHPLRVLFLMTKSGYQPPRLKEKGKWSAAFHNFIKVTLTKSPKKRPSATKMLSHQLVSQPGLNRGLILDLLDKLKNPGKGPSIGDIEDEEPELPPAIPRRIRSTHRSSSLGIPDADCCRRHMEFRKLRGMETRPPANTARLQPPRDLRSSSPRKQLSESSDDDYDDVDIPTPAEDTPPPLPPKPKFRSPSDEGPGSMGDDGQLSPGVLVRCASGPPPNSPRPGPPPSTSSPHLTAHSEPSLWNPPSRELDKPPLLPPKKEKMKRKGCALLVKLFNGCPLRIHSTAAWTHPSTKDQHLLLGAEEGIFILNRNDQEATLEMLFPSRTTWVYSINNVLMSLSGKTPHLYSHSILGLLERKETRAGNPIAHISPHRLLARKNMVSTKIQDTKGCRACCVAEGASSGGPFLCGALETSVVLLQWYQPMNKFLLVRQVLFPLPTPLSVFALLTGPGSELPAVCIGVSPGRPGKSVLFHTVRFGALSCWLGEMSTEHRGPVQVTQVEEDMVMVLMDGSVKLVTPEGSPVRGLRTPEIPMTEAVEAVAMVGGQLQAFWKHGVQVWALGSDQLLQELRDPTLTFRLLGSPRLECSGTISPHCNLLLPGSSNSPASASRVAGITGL

`Cc1ccn2c(-c3ccc(Nc4ccc(N5CCO[C@H](C(C)(C)O)C5)cn4)c4c3CNC4=O)cnc2n1` [I-645, (S)-7-((5-(2-(2-hydroxypropan-2-yl)morpliolino)pyridin-2-yl)amino)-4-(7-methylimidazo [1,2-a]pyrimidin-3-yl) isoindolin-1-one] was tested. Which IC50 did it give?
Its IC50 is less than 100 nM.

For `CN(C)[C@@H]1COCCN(c2ccc(Nc3ccc(-c4cnc5cc(F)ccn45)c4c3C(=O)NC4)nc2)C1` [I-518, (S)-7-((5-(6-(dimethylami-no)-1,4-oxazepan-4-yl)pyridin-2-yl)amino)-4-(7-fluoroimidazo [1,2-a]pyridin-3-yl)isoindolin-1-one], which IC50 is on record?
Its IC50 is less than 100 nM.

`Cc1cnn2c(-c3ccc(Nc4ccc(N5CCC(O)CC5)cn4)c4c3CNC4=O)cnc2c1` [I-184, 7-[[5-(4-hydroxy-1-piperidyl)-2-pyripyl]amino]-4-(7-methylimidazo [1,2-b]pyridazin-3-yl)isoindolin-1-one] was tested. Which IC50 did it give?
The IC50 was less than 100 nM.

How did the IC50 turn out when `CN(C)C[C@@H]1CN(c2ccc(Nc3ccc(-c4cnc5cc(F)ccn45)c4c3C(=O)NC4)nc2)CCO1` [I-603, (R)-7-((5-(2-((dimethylamino)-methyl)mor-pholino)pyridin-2-yl)amino)-4-(7-fluoroimidazo [1,2-a]pyridin-3-yl)isoindolin-1-one] was run?
The IC50 was less than 100 nM.

How did the IC50 turn out when `CN(C)Cc1nc(Nc2ccc(-c3cnc4cc(C(F)F)ccn34)c3c2C(=O)NC3)ccc1C1CCOC1` (stereo in doubt) [I-752, (S)-4-(7-(difluoromethyl)-imidazo[1,2-a]pyridin-3-yl)-7-((6-((dimethylamino)-methyl)-5-(tetrahydrofuran-3-yl)pyridin-2-yl)amino)isoin-dolin-1-one] was run?
The IC50 was less than 100 nM.

Which IC50 does the source give for `CC(C)NCc1nc(Nc2ccc(-c3cnc4cc(F)ccn34)c3c2C(=O)NC3)ccc1[C@@H]1CCOC1` [I-558] here?
Its IC50 is less than 100 nM.

For `Cc1[nH]c2ncccc2c1-c1ccc(Nc2ccc(N3CCN(C)CC3)cn2)c2c1CNC2=O` [I-27, 7-[[5-(4-methylpiperazin-1-yl)-2-pyridyl]amino]-4-(2-methyl-1H-pyrrolo[2,3-b]pyridin-3-yl)-isoindolin-1-one], which IC50 is on record?
Its IC50 is 100 to 1000 nM.

For `CN1CCN(c2ccc(Nc3cnc(-c4cnc5c(F)cccn45)c4c3C(=O)NC4)nc2)C[C@H]1C(C)(C)O` (stereo in doubt) [I-621, (R]-4-(8-fluoroimidazo [1,2-a]pyridin-3-yl)-7-((5-(3-(2-hydroxypropan-2-yl)-4-methylpiperazin-1-yl)pyridin-2-yl)amino)-2.3-dihydro-1H-pyrrolo[3,4-c]pyridin-1-one], which IC50 is on record?
The IC50 was less than 100 nM.

How did the IC50 turn out when `Cn1ccc2c(-c3ncc(Nc4ccc(N5C[C@@H]6C[C@H]5CO6)cn4)c4c3CNC4=O)ccnc21` [I-309, 7-((5-((1S,4S)-2-oxa-5-azabicyclo[2.2.1]heptan-5-yl)pyridin-2-yl)amino)-4-(1-methyl-1H-pyrrolo[2,3-b]pyridin-4-yl)-2,3-dihydro-1H-pyrrolo[3,4-c]pyridin-1-one] was run?
The IC50 was less than 100 nM.

How did the IC50 turn out when `CN(C)Cc1nc(Nc2cnc(-c3ccnc4[nH]ccc34)c3c2C(=O)NC3)ccc1[C@H]1CCOC1` [I-767, (R)-7-((6-((dimethylamino)-methyl)-5-(tetrahydrofuran-3-yl)pyridin-2-yl)amino)-4-(1H-pyrrolo[2,3-b]pyridin-4-yl)-2,3-dihydro-1H-pyrrolo[3,4-c]pyridin-1-one] was run?
Its IC50 is less than 100 nM.

For `CNC(C)(C)[C@H]1CN(c2ccc(Nc3ccc(-c4cnc5cc(F)ccn45)c4c3C(=O)NC4)nc2)CCO1` (single isomer, unassigned) [I-676], which IC50 is on record?
The IC50 was less than 100 nM.

With `CC(C)(O)[C@H]1CN(c2ccc(Nc3ccc(-c4cnc5cc(F)ccn45)c4c3C(=O)NC4)nc2)CCO1` [I-345, (R)-4-(7-fluoroimidazo[1,2-a]pyridin-3-yl)-7-((5-(2-(2-hydroxypropan-2-yl)morpholino)pyridin-2-yl)amino)isoindolin-1-one] as the molecule, how does the IC50 read?
Its IC50 is less than 100 nM.

How did the IC50 turn out when `C[C@H]1C[C@H](O)CCN1c1ccc(Nc2ccc(-c3cnc4cnccn34)c3c2C(=O)NC3)nc1` [I-352, 7-((5-((2S,4R)-4-hydroxy-2-methylpiperidin-1-yl)pyridin-2-yl)amino)-4-(imidazo[1,2-a]pyrazin-3-yl)isoindolin-1-one] was run?
The IC50 was less than 100 nM.

With `COCC1(c2ccc(Nc3ccc(-c4cnc5cc(F)ccn45)c4c3C(=O)NC4)nc2CN(C)C)CCOC1` (centres unmarked) [I-837, 7-((6-((dimethylamino)methyl)-5-(3-(methoxymethyl)tetrahydrofuran-3-yl)pyridin-2-yl)amino)-4-(7-fluoroimidazo[1,2-a]pyridin-3-yl)isoindolin-1-one] as the molecule, how does the IC50 read?
Its IC50 is less than 100 nM.

How did the IC50 turn out when `COc1cccn2c(-c3ccc(Nc4ccc(N5CCC(O)CC5)cn4)c4c3CNC4=O)cnc12` [I-166, 7-[[5-(4-hydroxy-1-piperidyl)-2-pyridyl]amino]-4-(8-methoxy-imidazo[1,2-a]pyridin-3-yl)isoindolin-1-one] was run?
Its IC50 is less than 100 nM.

For `CN(C)Cc1nc(Nc2ccc(-c3cnc4cc(F)ccn34)c3c2C(=O)NC3)ccc1[C@@]1(O)CCOC1` [I-804, (S)-7-((6-((dimethylamino)-methyl)-5-(3-hydroxytetra-hydrofuran-3-yl)pyridin-2-yl)amino)-4-(7-fluoroimidazo [1,2-a]pyridin-3-yl)isoindolin-1-one], which IC50 is on record?
The IC50 was less than 100 nM.

Which IC50 does the source give for `Cn1ccc2c(-c3ccc(Nc4ccc(CS(C)(=O)=O)cn4)c4c3CNC4=O)ccnc21` [I-293, 4-(1-methyl-1H-pyrrolo[2,3-b]pyridin-4-yl)-7-((5-((methylsulfonyl)methyl)pyridin-2-yl)amino)isoindolin-1-one] here?
The IC50 was less than 100 nM.

Which IC50 does the source give for `O=C1NCc2c(-c3cnc4cc(F)ccn34)ccc(Nc3ccc(N4CCC[C@@H](N5CCOCC5)C4)cn3)c21` [I-502, (R)-4-(7-fluoroimidazo [1,2-a]pyridin-3-yl)-7-((5-(3-morpholinopip-eridin-1-yl)pyridin-2-yl)amino)isoin-dolin-1-one] here?
Its IC50 is less than 100 nM.

For `Cc1ccn2c(-c3ccc(Nc4ccc(N5CCO[C@H](CO)C5)cn4)c4c3CNC4=O)cnc2n1` [I-452, 7-[[5-[(2S)-2-(hydroxymeth-yl)morpholin-4-yl]-2-pyridyl]amino]-4-(7-methylimidazo [1,2-a]pyrimidin-3-yl)isoindolin-1-one], which IC50 is on record?
Its IC50 is less than 100 nM.

`C[C@H](O)[C@@H]1CN(c2ccc(Nc3ccc(-c4cnc5cc(F)ccn45)c4c3C(=O)NC4)nc2)CCO1` (single isomer, unassigned) [I-620] was tested. Which IC50 did it give?
The IC50 was less than 100 nM.

Which IC50 does the source give for `CN(C)Cc1nc(Nc2cnc(-c3ccnc4c3ccn4C)c3c2C(=O)NC3)ccc1O[C@H]1CCOC1` [I-806, (S)-7-((6-((dimetlnlamino)-methyl)-5-((tetrahydrofur-an-3-yl)oxy)pyridin-2-yl)amino)-4-(1-methyl-1H-pyrrolo[2,3-b]pyridin-4-yl)-2,3-dihydro-1H-pyrrolo[3,4-c]pyridin-1-one] here?
The IC50 was less than 100 nM.

Which IC50 does the source give for `CN(C)Cc1nc(Nc2ccc(-c3cnc4cc(F)ccn34)c3c2C(=O)NC3)ccc1N1CCC[C@H](O)C1` [I-532, 7-[[6-[(dimethylamino)-methyl]-5-[(3S)-3-hydroxy-1-piperipyl]-2-pyridyl]amino]-4-(7-fluoroimidazo [1,2-a]pyridin-3-yl)isoindolin-1-one] here?
The IC50 was less than 100 nM.

How did the IC50 turn out when `CC(C)([C@H]1CN(c2ccc(Nc3ccc(-c4cnc5cc(F)ccn45)c4c3C(=O)NC4)nc2)CCO1)N1CC(O)C1` [I-698] was run?
The IC50 was less than 100 nM.

How did the IC50 turn out when “4-(1-methyl- 1H-indol-4- yl)-7-((5- (piperazin-1- yl)pyridin-2- yl)amino)-2,3- dihydro-1H- pyrrolo[3,4- c]pyridin-1-one [I-266]” was run?
The IC50 was less than 100 nM.

For `CC(C)(O)[C@H]1CN(c2ccc(Nc3cnc(-c4cnc5c(Cl)cccn45)c4c3C(=O)NC4)nc2)CCO1` [I-462], which IC50 is on record?
The IC50 was less than 100 nM.

With `Cc1nc(Nc2cnc(-c3ccnc4c3ccn4C)c3c2C(=O)NC3)ccc1N1CCN(C)CC1` [I-589, 4-(1-methyl-1H-pyrrolo[2,3-b]pyridin-4-yl)-7-((6-methyl-5-(4-methylpiperazin-1-yl)pyridin-2-yl)amino)-2.3-dihydro-1H-pyrrolo[3,4-c]pyridin-1-one] as the molecule, how does the IC50 read?
Its IC50 is less than 100 nM.

For `CN(C)Cc1nc(Nc2ccc(-c3cnc4cc(F)ccn34)c3c2C(=O)NC3)ccc1N1CCC[C@@H](C(C)(C)O)C1` [I-745, (R)-7-((6-((dimethylamino)-methyl)-5-(3-(2-hydroxypropan-2-yl)piperidin-1-yl)pyridin-2-yl)amino)-4-(7-fluoroimidazo [1,2-a]pyridin-3-yl)isoindolin-1-one], which IC50 is on record?
Its IC50 is less than 100 nM.

For `CN1CCN(c2ccc(Nc3ccc(-c4c[nH]c5cccnc45)c4c3C(=O)NC4)nc2)CC1` [I-26, 7-((5-(4-methylpiperazin-1-yl)pyridin-2-yl)amino)-4-(1H-pyrrolo[3,2-b]pyridin-3-yl)isoindolin-1-one], which IC50 is on record?
The IC50 was 100 to 1000 nM.

How did the IC50 turn out when `CN(C)[C@H]1COCCN(c2ccc(Nc3ccc(-c4cnc5cc(F)ccn45)c4c3C(=O)NC4)nc2)C1` [I-519, (R)-7-((5-(6-(dimethylami-no)-1,4-oxazepan-4-yl)pyridin-2-yl)amino)-4-(7-fluoroimidazo [1,2-a]pyridin-3-yl)isoindolin-1-one] was run?
Its IC50 is less than 100 nM.

`O=C1NCc2c(-c3cnc4cnccn34)ccc(Nc3ccc(N4CCOCC4)cn3)c21` [I-153, 4-imidazo[1,2-a]pyrazin-3-yl-7-[(5-morpholino-2-pyridyl)amino] isoindolin-1-one] was tested. Which IC50 did it give?
Its IC50 is less than 100 nM.

With `Cc1ccn2c(-c3ccc(Nc4ccc(N5CCC(O)(CN6CCN(C)CC6)CC5)cn4)c4c3CNC4=O)cnc2c1F` [I-444, 4-(8-fluoro-7-methylimidazo [1,2-a]pyridin-3-yl)-7-((5-(4-hydroxy-4-((4-methylpiperazin-1-yl)methyl)piper-idin-1-yl)pyridin-2-yl)amino)isoin-dolin-1-one] as the molecule, how does the IC50 read?
The IC50 was less than 100 nM.

For `CN1C[C@H]2CCN(c3cccc(Nc4cnc(-c5ccnc6c5ccn6C)c5c4C(=O)NC5)n3)[C@H]2C1` [I-631, 4-(1-methyl-1H-pyrrolo[2,3-b]pyridin-4-yl)-7-((6-((3aR,6aR)-5-methylhexahy-dropyrrolo[3,4-b]pyrrol-1(2H)-yl)pyridin-2-yl)amino)-2,3-dihydro-1H-pyrrolo[3,4-c]pyridin-1-one], which IC50 is on record?
Its IC50 is greater than 1000 nM.
